Results from patent US11353448B2, “Methods and compositions for quantifying metabolites and proteins from single cells” (CALIFORNIA INSTITUTE OF TECHNOLOGY, priority 2015, dated 2022).
“Also recorded” adds a separate entry of the source. Like-named read-outs stand apart in the source and are kept apart here.

Assays:
[1] = system: U87 cells; assay: Glutamine kit assay (Abcam, ab83389), cells incubated with Compound 3; assay type: cell-based, human; settings: U87 cells alone vs incubated with Compound 3
[2] = system: U87/EGFRV3 cells; assay: Glutamine analog uptake (Cyclodextrin-Cy3 / Adamantane-BHQ2 FRET readout); assay type: cell-based, human; settings: 1 mM analog, 20 min; with glutamine at 4° C. and 37° C., without glutamine at 37° C.
Experimental: FIG. 5B is a graph of cell uptake experiments using the immunofluorescence assay depicted in FIG. 2C to assay Compounds 1-8 as shown in FIG. 5A in the presence of glutamine at 4° C. (left bars) and 37° C. (middle bars), and in the absence of glutamine at 37° C. (right bars), according to embodiments of the present invention.
U87/EGFRV3 single cells were resuspended in DMEM media or glutamine-free DMEM media (Thermo Fisher Scientific) with 1 mM of glutamine analog and incubated at 37° C. or 4° C. for 20 min. Subsequently, the cells were collected via centrifugation (500 g, 5 min) and washed with cold PBS for three times. Then, the cells were lysed using cell lysis buffer (Cell Signaling, Boston, Mass., U.S.A.). To quantify the analog uptake, the lysate was mixed with an Adamantane-BHQ2 solution (100 nM in water) incubated on the glass slide with surface hybridized Cyclodextrin-Cy3-DNA at room temperature for 1 hr. the glass slide was then washed and spin dried. The fluorescence signal on the glass slide was read out using an Axon GenePix 4400A scanner.

[3] = system: cell growth; assay: Cell toxicity of Compound 3 Ad-Glutamine analog (cell numbers normalized to control); assay type: cell-based; settings: indicated concentrations, FIG. 5F
Description: FIG. 5F is a graph showing cell toxicity of the Compound 3-Ad-Glutamine analog at the indicated concentrations with cell numbers normalized to the control sample, according to embodiments of the present invention.

[4] = target: T1, SLC1A5 neutral amino acid transporter (Homo sapiens, UniProt Q15758); assay: Uptake of Compound 3 with the SLC1A5 transporter inhibited (sodium free, siRNA); assay type: cell-based; settings: U87 cells
T1 construct: Compound 3 was further analyzed for uptake in U87 cells; endogenous in cells; host or cells: U87 (U87/EGFRV3) glioblastoma cells
T1 sequence (Q15758 1-541): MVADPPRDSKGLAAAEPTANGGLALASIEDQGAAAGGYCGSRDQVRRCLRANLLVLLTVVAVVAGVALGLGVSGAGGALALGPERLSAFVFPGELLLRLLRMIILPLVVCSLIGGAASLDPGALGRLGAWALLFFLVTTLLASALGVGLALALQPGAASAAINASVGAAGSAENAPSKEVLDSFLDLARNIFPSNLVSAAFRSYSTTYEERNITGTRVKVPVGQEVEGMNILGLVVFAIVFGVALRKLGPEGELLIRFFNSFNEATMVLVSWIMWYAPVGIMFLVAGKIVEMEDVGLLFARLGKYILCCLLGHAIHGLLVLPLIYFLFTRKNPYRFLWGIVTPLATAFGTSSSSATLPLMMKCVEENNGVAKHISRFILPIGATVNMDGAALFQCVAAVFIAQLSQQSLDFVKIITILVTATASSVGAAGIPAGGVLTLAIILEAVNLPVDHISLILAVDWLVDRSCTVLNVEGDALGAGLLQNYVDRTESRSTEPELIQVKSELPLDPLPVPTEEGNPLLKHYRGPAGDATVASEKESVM
Experimental: In some embodiments of the present invention, a method for measuring glutamine uptake in a cell includes incubating the cell with a glutamine analog, followed by lysis of the cell, and quantification of the amount of the glutamine analog in the cell. […] These 8 glutamine analogs (adamantane conjugates) were assayed for their ability to substitute for glutamine. […] As such, the Compound 3 Ad-Glutamine analog is a validated substitute for glutamine.

[5] = system: hexokinase; assay: Coupled enzyme kinetics measurement (hexokinase/G6PDH, NADH absorption at 340 nm); assay type: biochemical
Description: Enzymes and substrate solutions from a glucose assay kit (Sigma-Aldrich) were used without purification. […] First, hexokinase converts glucose into glucose-6-phosphate, which consumes one equivalent of ATP. Then, the glucose-6-phosphate is converted to gluconate-6-phosphate by glucose-6-phosphate dehydrogenase (G6PDH). At the same time, this process converts NAD to NADH, which has a distinct absorption band at 340 nm. By continuously measuring the solution absorption, the kinetics of the first reaction can be indirectly monitored. […] This will result in a much slower generation of NADH. […] This proves that Gluc-Bio can bind to hexokinase and could be a substrate. […] In this experiment, the amount of ATP was controlled to be much less than that of glucose. If Gluc-Bio is simply an inhibitor and cannot be converted by hexokinase, it will not consume the ATP pool in the solution, and the final amount of NADH will be the same as that of glucose alone.

[6] = system: GBM39 single cells; assay: Validation of the Gluc-Bio uptake; assay type: cell-based, human; settings: 20 ug/mL Gluc-Bio, 20 min; 17.5 mM vs 25 mM glucose; 37° C. vs 4° C.
Experimental: FIG. 4C is a graph of cell uptake experiments using the immunofluorescence assay depicted in FIG. 2B to assay Gluc-Bio uptake in GBM39 primary neurosphere cells at 37° C. in the presence of […] glucose and 25 mM glucose, and at 4° C. at 17.5 mM glucose as indicated, showing that Gluc-Bio competes with glucose, according to embodiments of the present invention.
GBM39 single cells were suspended in normal media (17.5 mM glucose) or high glucose media (25 mM glucose) at a concentration of 0.5 M cells/mL. These cells were incubated with 20 ug/mL of Gluc-Bio at 37° C. or 4° C. for 20 min. After incubation, cells were washed with cold PBS for three times and then lysed for quantifying the Gluc-Bio.

[7] = system: U87EGFRvIII cells; assay: Growth curves under erlotinib; assay type: cell-based, human; settings: 1 uM erlotinib
Description: U87/EGFRV3 cells were provided by Prof.

[8] = system: U87EGFRvIII cells
Experimental: A multiplex assay incorporating the glutamine uptake assay according to embodiments of the present invention was performed using a SCBC platform in U87 human glioblastoma cells having amplified epidermal growth factor receptor (EGFR) expression.
U87/EGFRV3 cells were provided by Prof. Paul S. Mischel (UCSD, San Diego, U.S.A.) and cultured in Dulbecco's modified eagle media (DMEM, Gibco, ThermoFisher Scientific, Grand Island, N.Y., U.S.A.) supplemented with 10% of fetal bovine serum (Thermo Fisher Scientific) and 100 U/mL of penicillin and streptomycin in a humidified 5% CO2 (v/v) incubator, at 37° C.
In order to better understand the integrated single cell metabolic/proteomic data, a simplified semi-quantitative metabolic model (FIG. 16A) was developed. The focus of this model includes the glycolysis pathway and the TCA cycle, which cover the major contributors of cellular energy generation. Glucose is used by cells for many tasks, but by combining the measurement of glucose uptake with measurements of those enzymes that process glucose for energy production and lactate production, an estimation may be made of the contributions of glucose to glycolysis and to the TCA cycle (FIGS. 16A-16B). It assumed that each glucose molecule consumed yields 8 ATP equivalents through glycolysis, and an additional 22 ATP equivalents through the TCA cycle. The numbers here are not the actual ATP production number, but an energy-currency conversion. The glycolysis part generates 2 ATP and 2 NADH molecules per glucose, and each NADH is ultimately worth 3 ATP, thus making 8 ATP total. […] For glutamine that is taken up by the cell, there are multiple possible outcomes. It can enter the TCA cycle to generate energy, or it can be exported in exchange for other amino acids, or participate in biosynthesis of glutathione and proteins, as examples. On this basis, glutamine may be considered as a special currency, which can either be used directly by the cell to produce energy, or in exchange of other necessary nutrients or to perform some crucial metabolic function. From a global point of view, the active uptake of glutamine reflects a metabolic demand from the cell, regardless how it is used. In order to have an integrated picture of the potential energy production from glutamine and glucose, we simply assume that all glutamine participates in the TCA cycle, so that each glutamine molecule affords 8.5 ATP equivalents. To calculate the energy production for each pathway, glucose and glutamine uptake levels as well as related metabolic enzyme levels are normalized into the range between 0 and 1 across all samples. Subsequently, the normalized analyte levels (a) were used and a steady-state approximation (FIG. 16E) to calculate the energy production rate for each step (FIG. 16B). Several energy indices were defined based on the model. The energy production index (EPI) assesses the total energy production rate through glucose and glutamine metabolism, while the energy source index (ESI) measures the energy contribution ratio between glucose and glutamine. The glycolysis index (GI) weighs the contribution of glycolysis in total glucose-based energy production, and depends upon glucose uptake, as well as the levels of phosphofructokinase (PFK) and pyruvate kinase isozyme M2 (PKM2). In addition to the energy indices, we use the cAMP and cGMP levels to define an energy frustration index (EFI), and use the GSH level to define a redox frustration index (RFI).

[9] = system: GBM39 cells; assay: SCBC multiplex metabolite/protein assay before and after erlotinib; assay type: cell-based, human; settings: 24 h erlotinib treatment (1 μM)
Experimental: Using a SCBC as shown in FIGS. 1A and 1B and further disclosed herein, simultaneous quantification of a panel of metabolites and proteins, including cAMP, cGMP, glucose uptake, glutathione along with phosphofructokinase (PFK), phospho-acetyl-CoA Caraboxylase (pACAC), phospho-liver kinase B1 (pLKB1), phosphoinositide-dependent kinase 1 (PDK), hexokinase 2 (HK2), pyruvate kinase M2 (PKM2), and phospho-carbohydrate kinase family protein (pPFKB2) was performed in single cells separated from the GBM39 neurosphere tumor model. […] For the drug treatment, 1 million cells were suspended in 10 mL of media and were cultured for several days to form neurospheres. […] The cells were then treated for designated periods of time and processed for tests. Cell loading. The upper channels were briefly rinsed with cell culture medium to minimize perturbation to the cells. […] The suspension was loaded into the SCBC device and compartmentalized into 310 isolated microchambers with single cell or defined number of cells in each chamber. The cell loading step results in a random distribution of different numbers of cells in different chambers, the statistical distribution can be adjusted by varying the loading concentration and the flow speed. […] The extra cells were washed away by 1×PBST. The images of each chamber were recorded using a microscope-CCD camera and used for subsequent cell counting.

NC(CCCNC(=O)C12CC3CC(CC(C3)C1)C2)C(=O)O (stereo not drawn) [Compound 3, 5-(adamantane-1-carboxamido)-2-aminopentanoic acid]
competition with cellular glutamine (absorbance) [1]: competes with the cellular glutamine | cell uptake of glutamine analog: dependence on temperature and on glutamine [2]: temperature-dependency and glutamine-dependency | cell growth / cell toxicity [3]: does not inhibit cell growth | cell uptake of Compound 3 ([4]; siRNA knock-down of SLC1A5): inhibition of cell uptake | Compound 3 fluorescence (uptake) ([4]; sodium free conditions): inhibition of Compound 3 fluorescence (uptake)

N[C@@H](CC(=O)NC12CC3CC(CC(C3)C1)C2)C(=O)O [Compound 8, N4-(adamantan-1-yl)asparagine]
cell uptake of glutamine analog: dependence on temperature and on glutamine [2]: temperature-dependency and glutamine-dependency

O=C(CCCC[C@@H]1SC[C@@H]2NC(=O)N[C@@H]21)N[C@H]1C(O)O[C@H](CO)[C@@H](O)[C@@H]1O (stereo partly drawn) [Gluc-Bio]
generation of NADH in the presence of Gluc-Bio ([5]; 0.5 mM glucose and 0.5 mM Gluc-Bio vs 0.5 mM glucose alone): much slower than that of glucose alone | final amount of NADH generated ([5]; ATP much less than glucose, addition of Gluc-Bio): less NADH was generated | substrate for hexokinase ([5]; conclusion from both experiments): is a substrate for hexokinase | uptake of Gluc-Bio [6]: inhibited by increasing the extracellular glucose concentration and by decreasing the temperature

C#Cc1cccc(Nc2ncnc3cc(OCCOC)c(OCCOC)cc23)c1 [erlotinib]
cell growth (number of cells as a function of days) [7]: not inhibited; also recorded: does not inhibit | glutamine uptake ([8]; 1 uM erlotinib): increased | glucose uptake ([8]; 1 μM erlotinib): repressed | levels of PFK and PKM2 ([8]; 1 μM erlotinib): increased | glucose uptake ([8]; higher dose erlotinib (10 μM)): decreased | glutamine uptake ([8]; higher dose erlotinib (10 μM)): decreased | metabolic enzymes ([8]; higher dose erlotinib (10 μM)): repressed | cellular energy production (EPI) ([8]; higher drug concentration (10 μM)): inhibits cellular energy production | activities of HK2 [9]: sharply reduced | level of GSH [9]: sharply reduced | level of glucose uptake [9]: sharply reduced
